Laboratory results published in patent US11390609B2, “Rho-associated protein kinase inhibitor, pharmaceutical composition comprising same, and preparation method and use thereof” (BEIJING TIDE PHARMACEUTICAL CO., LTD., priority 2017, dated 2022).

Target: ROCK1 (Homo sapiens (Human), UniProt Q13464)
Test: ROCK1 kinase IC50 assay (biological test method similar to the ROCK2 assay)
Assay type: biochemical
Procedure: The kinase IC50 was determined by a commercialized CISBIO kinase detection kit, HTRF KinEASE-STK S2 kit (62ST2PEC). ROCK2 (01-119) employed in the reaction was purchased from Carna Biosciences.
Before the assay, the following working solutions as needed were formulated with corresponding reagents according to the instruction of the kinase detection kit: 1×kinase buffer, 5×STK-52 substrate working solution (1.5 μM) and 5×ATP working solution (1.5 μM), 5×ROCK2 kinase working solution, 4×Streptavidin-XL665 working solution, and 4×STK-Ab-Cryptate 2 detection solution. Then the assay was performed according to the following procedure.
A solution of a compound at a concentration of 10000 nM was prepared with the 1×kinase buffer containing 2.5% DMSO. Gradient dilution of the solution of the compound was performed with the kinase buffer containing DMSO, so as to obtain solutions of a test compound at 9 different concentrations. In addition to wells of test compounds, a positive well (containing all the reagents except the compound) and a negative well (containing all the reagents except the test compound and kinase) were set. Except for the control wells (positive and negative wells), a solution of a test compound (4 μL) was added to each of the reaction wells, and a solution of 2.5% DMSO was added to the control wells. Then the substrate ([…], 2 μL. 5×STK-S2 substrate working solution) was added to each of the reaction wells. The 5×ROCK2 kinase working solution (2 μL, containing 1.4 ng ROCK2 kinase) was added to each of the reaction wells except for the negative well, the volume of which was made up with the 1×kinase buffer (2 μL). The 5×ATP working solution (2 μL) was added to each of the reaction wells, and the mixtures were incubated at room temperature for 2 hours. After the kinase reaction was complete, the 4×Streptavidin-XL665 working solution was added to each of the reaction wells, the solutions were mixed, followed by immediate addition of the 4×STK-Ab-Cryptate 2 detection solution (5 μL), and the mixtures were incubated at room temperature for 1 hour. The fluorescence signal was read on ENVISION (Perkinelmer) (excitation wavelength: 320 nm, and emission wavelength: 665 nm and 615 nm). The inhibitory rate in each well was calculated based on the fluorescence intensity value: ER (Emission Ratio)=(fluorescence intensity at 665 nm/fluorescence intensity at 615 nm); inhibitory rate=(ERpositive−ERtest compound)/(ERpositive−ERnegative)*100%. Curves were plotted and fitted to obtain the median inhibitory concentration (IC50) of each teat compound with the PRISM 5.0 software.
According to a biological test method similar to the above, the IC50 values of the compounds on ROCK1 were tested.

Sequence of ROCK1 (Q13464 whole entry, species assumed): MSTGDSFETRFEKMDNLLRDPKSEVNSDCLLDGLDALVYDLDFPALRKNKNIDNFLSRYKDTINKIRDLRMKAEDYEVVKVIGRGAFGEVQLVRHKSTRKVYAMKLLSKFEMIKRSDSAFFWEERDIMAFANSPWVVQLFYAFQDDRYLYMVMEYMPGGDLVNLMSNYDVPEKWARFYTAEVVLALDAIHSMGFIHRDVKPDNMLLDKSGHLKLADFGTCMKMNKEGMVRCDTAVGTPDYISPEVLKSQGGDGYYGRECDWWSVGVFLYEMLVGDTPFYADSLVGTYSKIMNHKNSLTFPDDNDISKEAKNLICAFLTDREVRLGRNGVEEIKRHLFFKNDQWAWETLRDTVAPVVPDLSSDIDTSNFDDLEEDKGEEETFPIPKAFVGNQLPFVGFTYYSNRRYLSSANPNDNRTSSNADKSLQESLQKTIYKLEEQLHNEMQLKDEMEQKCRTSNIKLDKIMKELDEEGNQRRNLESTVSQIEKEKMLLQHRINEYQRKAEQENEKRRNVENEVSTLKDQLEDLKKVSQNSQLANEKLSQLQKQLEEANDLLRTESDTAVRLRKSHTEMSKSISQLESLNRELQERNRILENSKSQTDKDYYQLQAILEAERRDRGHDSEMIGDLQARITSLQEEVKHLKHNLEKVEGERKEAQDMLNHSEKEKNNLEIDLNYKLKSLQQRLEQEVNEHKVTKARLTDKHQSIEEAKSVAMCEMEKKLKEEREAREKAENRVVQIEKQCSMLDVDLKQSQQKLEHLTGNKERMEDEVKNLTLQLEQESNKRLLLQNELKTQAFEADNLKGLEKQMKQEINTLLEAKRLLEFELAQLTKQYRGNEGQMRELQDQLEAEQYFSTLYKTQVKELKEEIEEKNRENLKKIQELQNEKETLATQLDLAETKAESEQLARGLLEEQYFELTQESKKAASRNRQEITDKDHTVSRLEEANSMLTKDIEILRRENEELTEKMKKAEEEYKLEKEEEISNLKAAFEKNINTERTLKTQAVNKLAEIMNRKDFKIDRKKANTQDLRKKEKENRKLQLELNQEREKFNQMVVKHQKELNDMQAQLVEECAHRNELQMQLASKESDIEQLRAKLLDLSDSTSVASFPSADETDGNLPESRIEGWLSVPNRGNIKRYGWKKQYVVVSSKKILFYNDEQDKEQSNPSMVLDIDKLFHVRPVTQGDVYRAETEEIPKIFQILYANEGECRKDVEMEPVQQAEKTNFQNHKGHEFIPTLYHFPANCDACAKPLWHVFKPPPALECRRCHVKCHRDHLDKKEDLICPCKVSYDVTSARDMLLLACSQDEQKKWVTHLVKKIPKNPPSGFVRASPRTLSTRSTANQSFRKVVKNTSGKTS

IC50	Compound
6.92 µM	Cn1c(C(=O)Nc2ccnnc2)cc2ccc(-c3nccc(Nc4ccc5[nH]ncc5c4)n3)cc21 [TDI01201, 6-(4-((1H-indazol-5-yl)amino)-pyrimidin-2-yl)-1-methyl-N-(pyridazin-4-yl)-1H-indole-2-carboxamide]
> 10 µM	O=C(Nc1ccnnc1)c1cc2ccc(-c3ncc(F)c(Nc4ccc5[nH]ncc5c4)n3)cc2[nH]1 [TDI01213, 6-(4-((1H-indazol-5-yl)amino)-5-fluoropyrimidin-2-yl)-N-(pyridazin-4-yl)-1H-indole-2-carboxamide]
1.5 µM	CN1CCN(CC(=O)n2ccc3ccc(-c4nccc(Nc5ccc6[nH]ncc6c5)n4)cc32)CC1 [TDI01230, 1-(6-(4-((1H-indazol-5-yl)amino)pyrimidin-2-yl)-1H-indol-1-yl)-2-(4-methylpiperazin-1-yl)ethan-1-one]
> 10 µM	Cc1nc(-c2ccc3cc(C(=O)Nc4ccnnc4)[nH]c3c2)nc(Nc2ccc3[nH]ncc3c2)c1C [TDI01232, 6-(4-((1H-indazol-5-yl)amino)-5,6-dimethyl-pyrimidin-2-yl)-N-(pyridazin-4-yl)-1H-indole-2-carboxamide]
> 10 µM	O=C(Nc1ccnnc1)c1ccc2ccc(-c3nccc(Nc4ccc5[nH]ncc5c4)n3)cc2n1 [TDI01236, 7-(4-((1H-indazol-5-yl)ami-no)pyrimidin-2-yl)-N-(pyridazin-4-yl)quinoline-2-carboxamide]
> 10 µM	O=C(Nc1ccnnc1)N1Cc2ccc(-c3nccc(Nc4ccc5[nH]ncc5c4)n3)cc2C1 [TDI01237, 5-(4-((1H-indazol-5-yl)amino)pyrimidin-2-yl)-N-(pyridazin-4-yl)isoindoline-2-carboxamide]
> 10 µM	O=C(Nc1nncs1)c1cc2ccc(-c3nccc(Nc4ccc5[nH]ncc5c4)n3)cc2[nH]1 [TDI01247, 6-(4-((1H-indazol-5-yl)amino)pyrimidin-2-yl)-N-(1,3,4-thiadiazol-2-yl)-1H-indole-2-carboxamide]
> 10 µM	Cc1cnc(-c2ccc3cc(C(=O)Nc4ccnnc4)[nH]c3c2)nc1Nc1ccc2[nH]ncc2c1 [TDI01250, 6-(4-((1H-indazol-5-yl)amino)-5-methyl-pyrimidin-2-yl)-N-(pyridazin-4-yl)-1H-indole-2-carboxamide]
> 10 µM	Cc1cc(Nc2ccc3[nH]ncc3c2)nc(-c2ccc3cc(C(=O)Nc4ccnnc4)[nH]c3c2)n1 [TDI01251, 6-(4-((1H-indazol-5-yl)amino)-6-methyl-pyrimidin-2-yl)-N-(pyridazin-4-yl)-1H-indole-2-carboxamide]
> 10 µM	Cc1c(Nc2ccnc(-c3ccc4cc(C(=O)Nc5ccnnc5)[nH]c4c3)n2)ccc2[nH]ncc12 [TDI01276, 6-(4-((4-methyl-1H-indazol-5-yl)amino)-pyrimidin-2-yl)-N-(pyridazin-4-yl)-1H-indole-2-carboxamide]
1.02 µM	CC(C)NC(=O)c1cc2ccc(-c3nccc(Nc4ccc(-c5cn[nH]c5)cc4)n3)cc2[nH]1 [TDI01280, 6-(4-((4-(1H-pyrazol-4-yl)phenyl)ami-no)pyrimidin-2-yl)-N-isopropyl-1H-indole-2-carboxamide]
0.98 µM	CN(C)c1cnccc1NC(=O)c1cc2ccc(-c3nccc(Nc4ccc5[nH]ncc5c4)n3)cc2[nH]1 [TDI01289, 6-(4-((1H-indazol-5-yl)amino)-pyrimidin-2-yl)-N-(3-(dimethylamino)-pyridin-4-yl)-1H-indole-2-carboxamide]
> 10 µM	O=C(Nc1ccncc1Cl)c1cc2ccc(-c3nccc(Nc4ccc5[nH]ncc5c4)n3)cc2[nH]1 [TDI01290, 6-(4-((1H-indazol-5-yl)amino)-pyrimidin-2-yl)-N-(3-chloropyridin-4-yl)-1H-indole-2-carboxamide]
0.573 µM	O=C(NC1CCOCC1)c1cc2ccc(-c3nccc(Nc4ccc5[nH]ncc5c4)n3)cc2[nH]1 [TDI01291, 6-(4-((1H-indazol-5-yl)amino)-pyrimidin-2-yl)-N-(tetrahydro-2H-pyran-4-yl)-1H-indole-2-carboxamide]
4.84 µM	CC(C)NC(=O)C1Cc2ccc(-c3nccc(Nc4ccc5[nH]ncc5c4)n3)cc2N1 (stereo not drawn) [TDI01292, 6-(4-((1H-indazol-5-yl)amino)-pyrimidin-2-yl)-N-isopropyl-indoline-2-carboxamide]
> 10 µM	CN(C)C(=O)c1cc2ccc(-c3nccc(Nc4ccc(-c5cn[nH]c5)cc4)n3)cc2[nH]1 [TDI01294, 6-(4-((4-(1H-pyrazol-4-yl)phenyl)-amino)-pyrimidin-2-yl)-N,N-dimethyl-1H-indole-2-carboxamide]
2.87 µM	CNC(=O)c1cc2ccc(-c3nccc(Nc4ccc(-c5cn[nH]c5)cc4)n3)cc2[nH]1 [TDI01296, 6-(4-((4-(1H-pyrazol-4-yl)phenyl)-amino)-pyrimidin-2-yl)-N-methyl-1H-indole-2-carboxamide]
> 10 µM	O=C(Nc1ccccn1)c1cc2ccc(-c3nccc(Nc4ccc5[nH]ncc5c4)n3)cc2[nH]1 [TDI01311, 6-(4-((1H-indazol-5-yl)amino)pyrimidin-2-yl)-N-(pyridin-2-yl)-1H-indole-2-carboxamide]
1.84 µM	CC(C)NC(=O)N1Cc2ccc(-c3nccc(Nc4ccc5[nH]ncc5c4)n3)cc2C1 [TDI01312, 5-(4-((1H-indazol-5-yl)amino)pyrimidin-2-yl)-N-isopropylisoindoline-2-carboxamide]
2.15 µM	COc1ccc(NC(=O)c2cc3ccc(-c4nccc(Nc5ccc6[nH]ncc6c5)n4)cc3[nH]2)cn1 [TDI01315, 6-(4-((1H-indazol-5-yl)amino)-pyrimidin-2-yl)-N-(6-methoxy-pyridin-3-yl)-1H-indole-2-carboxamide]
0.999 µM	CN1CCC(n2cc(NC(=O)c3cc4ccc(-c5nccc(Nc6ccc7[nH]ncc7c6)n5)cc4[nH]3)cn2)CC1 [TDI01316, 6-(4-((1H-indazol-5-yl)amino)-pyrimidin-2-yl)-N-(1-(1-methyl-piperidin-4-yl)-1H-pyrazol-4-yl)-1H-indole-2-carboxamide]
0.274 µM	CN1CCC(N2CCCC(NC(=O)c3cc4ccc(-c5nccc(Nc6ccc7[nH]ncc7c6)n5)cc4[nH]3)C2)CC1 (stereo not drawn) [TDI01318, 6-(4-((1H-indazol-5-yl)amino)-pyrimidin-2-yl)-N-(1′-methyl-[1-4′-bipiperidin]-3-yl)-1H-indole-2-carboxamide]
1.74 µM	O=C(NC1CC1)c1cc2ccc(-c3nccc(Nc4ccc(-c5cn[nH]c5)cc4)n3)cc2[nH]1 [TDI01324, 6-(4-((4-(1H-pyrazol-4-yl)phenyl)-amino)-pyrimidin-2-yl)-N-cyclopropyl-1H-indole-2-carboxamide]
7.93 µM	O=C(c1cc2ccc(-c3nccc(Nc4ccc(-c5cn[nH]c5)cc4)n3)cc2[nH]1)N1CCC1 [TDI01330, (6-(4-((4-(1H-pyrazol-4-yl)phenyl)-amino)-pyrimidin-2-yl)-1H-indol-2-yl)(azetidin-1-yl)methanone]
> 10 µM	O=C(c1cc2ccc(-c3nccc(Nc4ccc(-c5cn[nH]c5)cc4)n3)cc2[nH]1)N1CCOCC1 [TDI01331, (6-(4-((4-(1H-pyrazol-4-yl)phenyl)-amino)-pyrimidin-2-yl)-1H-indol-2-yl)-(morpholino)-methanone]
6.27 µM	CCN(CC)C(=O)c1cc2ccc(-c3nccc(Nc4ccc(-c5cn[nH]c5)cc4)n3)cc2[nH]1 [TDI01332, 6-(4-((4-(1H-pyrazol-4-yl)phenyl)-amino)-pyrimidin-2-yl)-N,N-diethyl-1H-indole-2-carboxamide]
2.76 µM	O=C(NC1CCOC1)c1cc2ccc(-c3nccc(Nc4ccc(-c5cn[nH]c5)cc4)n3)cc2[nH]1 (stereo not drawn) [TDI01337, 6-(4-((4-(1H-pyrazol-4-yl)phenyl)-amino)-pyrimidin-2-yl)-N-(tetrahydro-furan-3-yl)-1H-indole-2-carboxamide]
1.8 µM	O=C(NC1CCOCC1)c1cc2ccc(-c3nccc(Nc4ccc(-c5cn[nH]c5)cc4)n3)cc2[nH]1 [TDI01338, 6-(4-((4-(1H-pvrazol-4-yl)phenyl)-amino)-pyrimidin-2-yl)-N-(tetrahydro-2H-pyran-4-yl)-1H-indole-2-carboxamide]
7.11 µM	CN1CCN(C(=O)c2cc3ccc(-c4nccc(Nc5ccc(-c6cn[nH]c6)cc5)n4)cc3[nH]2)CC1 [TDI01343, (6-4(-((4-(1H-pyrazol-4-yl)phenyl)-amino)-pyrimidin-2-yl)-1H-indol-2-yl)(4-methyl-piperazin-1-yl)methanone]
4.21 µM	CN(C(=O)c1cc2ccc(-c3nccc(Nc4ccc(-c5cn[nH]c5)cc4)n3)cc2[nH]1)C(CO)CO [TDI01344-2A, 6-(4-((4-(1H-pyrazol-4-yl)phenyl)-amino)-pyrimidin-2-yl)-N-(1,3-dihydroxy-propan-2-yl)-N-methyl-1H-indole-2-carboxamide]
